Measurements reported in the supplement of paper PMC11451515.

Tests used:
Experiment in all cases: AUC of viability dose-response curve (% viability x log10 dose units); higher = less sensitive
Conditions in all cases: 48 h
NOMO1 = tested on: NOMO1
How it was run: (§1)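 Medium-adapted leukemia cells in 1536-well plates, at 500 or 1000 cells/well, were incubated for 48 h at 37°C with library compounds in DMSO at 11 threefold doses from 47 μM to 0.79 nM. CellTiter-Glo One luminescence normalised per plate to DMSO and cell-free wells was fitted with a four-parameter log-logistic model over log10 doses. Area under the curve was integrated from this fit by trapezoidal rule, with curves beyond full viability scaled and failed quality-control curves removed.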

P12-Ichikawa = tested on: P12-Ichikawa
How it was run: as §1

SEM cells = tested on: SEM cells
How it was run: as §1

[1] = RPMI 5 mM glucose + 10% dialyzed FBS

| Structure (SMILES) | AUC of viability dose-response curve (NOMO1; HPLM + 10% dialyzed FBS) | AUC of viability dose-response curve (NOMO1; RPMI 5 mM glucose + 10% FBS) | AUC of viability dose-response curve (NOMO1; [1]) | AUC of viability dose-response curve (P12-Ichikawa; HPLM + 10% dialyzed FBS) | AUC of viability dose-response curve (P12-Ichikawa; RPMI 5 mM glucose + 10% FBS) | AUC of viability dose-response curve (P12-Ichikawa; [1]) | AUC of viability dose-response curve (SEM cells; HPLM + 10% dialyzed FBS) | AUC of viability dose-response curve (SEM cells; RPMI 5 mM glucose + 10% FBS) | AUC of viability dose-response curve (SEM cells; [1]) |
| --- | --- | --- | --- | --- | --- | --- | --- | --- | --- |
| O=c1oc2cc(O)ccc2s1 | 439 | 448 | 467 | 466 | 446 | 454 | 462 | 447 | 453 |
| NCCOc1cc(C(=O)Nc2cc(OCCN)c3ccccc3n2)nc(C(=O)Nc2cc(OCCN)c3ccccc3n2)c1 |  |  |  |  |  |  | 148 | 122 | 170 |
| CCOc1ccccc1N/N=C1/C(=O)N(c2nc(-c3ccccc3)cs2)N=C1C | 428 | 447 | 419 | 444 | 467 | 450 | 368 | 371 | 358 |
| COCC(=O)NC/C=C/c1ccc2ncnc(Nc3ccc(Oc4ccc(C)nc4)c(C)c3)c2c1 | 329 | 372 | 384 | 464 | 437 | 436 | 430 | 460 | 412 |
| O=C(O)c1cccnc1 | 369 | 402 | 385 | 408 | 426 | 403 | 330 | 360 | 356 |
| N#Cc1cc(NC(=O)Nc2nnc(-c3ccncc3)s2)ccc1-c1cn[nH]c1 | 473 | 476 | 461 | 463 | 452 | 465 | 451 | 462 | 467 |
| CC[C@H]1OC(=O)[C@H](C)[C@@H](O[C@H]2C[C@@](C)(OC)[C@@H](O)[C@H](C)O2)[C@H](C)[C@@H](O[C@@H]2O[C@H](C)C[C@H](N(C)C)[C@H]2O)[C@](C)(O)C[C@@H](C)/C(=N\OCOCCOC)[C@H](C)[C@@H](O)[C@]1(C)O | 409 | 424 | 374 | 423 | 390 | 407 | 423 | 444 | 465 |
| COc1cccc(N(C)C(=S)Oc2ccc3c(c2)CCCC3)n1 | 465 | 441 | 444 | 469 | 470 | 455 | 389 | 445 | 452 |
| CCOc1cc(C(=O)Nc2ccc(Cl)c(-c3nc4ccccc4[nH]3)c2)cc(OCC)c1OCC | 475 | 410 | 431 | 431 | 418 | 387 | 378 | 392 | 371 |
| OC[C@H]1OC(O)C[C@@H](O)[C@@H]1O (stereo partly drawn) | 463 | 466 | 466 | 463 | 470 | 475 | 439 | 441 | 447 |
| C/C1=C/C(=C(/CNC(=O)C2=CC(=CC3=C2C=N[N]3C4CCCC4)C5=CC=C(CN6CCOCC6)C=C5)C(=O)N1)C | 448 | 456 | 451 | 456 | 462 | 452 |  |  |  |
| CCC[C@H](Nc1nc(-c2ccc(NC(=O)NCC)c(OC)c2)ncc1C)c1cccnc1 | 287 | 251 | 251 | 195 | 194 | 205 |  |  |  |
| Cc1nc(-c2ccc(-c3ccc(C(=O)N4CCc5cc6c(cc54)C4(CCN(C)CC4)CO6)cc3)c(C)c2)no1 | 454 | 477 | 449 | 464 | 460 | 447 | 420 | 467 | 439 |
| Nc1cc(N2CCCCC2)nc(N)[n+]1[O-] | 451 | 461 | 465 | 469 | 468 | 475 | 451 | 451 | 455 |
| CN(C)C(=O)[C@H](O)[C@H](Cc1ccccc1)NC(=O)c1cc2cc(Cl)ccc2[nH]1 | 418 | 456 | 435 | 448 | 442 | 456 | 359 | 340 | 359 |
| CC(O)(C[S+](=O)([O-])c1ccc(F)cc1)C(=O)Nc1ccc(C#N)c(C(F)(F)F)c1 (stereo not drawn) | 439 | 422 | 436 | 450 | 430 | 413 | 428 | 426 | 424 |
| N#CC1(c2cccc(C(=O)Nc3cc(Oc4ccc5nc(NC(=O)C6CC6)sc5n4)ccc3F)c2Cl)CC1 | 344 | 370 | 327 | 372 | 362 | 369 |  |  |  |
| CC(C)[C@H]1C(=O)N[C@H](CO)Cc2c[nH]c3cccc(c23)N1C | 393 | 404 | 405 | 446 | 411 | 401 | 396 | 379 | 442 |
| CCC(=O)NC[C@H](Cc1ccc(OCCc2nc(-c3ccccc3)oc2C)cc1)N/C(C)=C\C(=O)c1ccc(C(F)(F)F)cc1 | 433 | 438 | 462 | 410 | 406 | 398 |  |  |  |
| CC(C)C[C@H](CC(=O)O)C(=O)N[C@@H](Cc1c[nH]c2ccccc12)C(=O)N[C@@H](C)c1ccccc1 | 428 | 446 | 465 | 413 | 419 | 421 |  |  |  |
| CC(=O)OCC(=O)[C@@]1(O)CC[C@H]2[C@@H]3CCC/4=C/C(=O)/C=C\[C@]4(C)[C@H]3[C@@H](O)C[C@]12C | 439 | 450 | 472 |  |  |  | 383 | 425 | 428 |
| Cc1cnc(Nc2cccc(CN3CCOCC3)c2)nc1Nc1cccc([S+](=O)([O-])NC(C)(C)C)c1 |  |  |  |  |  |  | 329 | 345 | 308 |
| OC(=O)CNC(=O)\C1=C(/O)C2=CC=CC=C2N(CC3=CC=CC=C3)C1=O | 466 | 430 | 450 | 462 | 456 | 433 |  |  |  |
| COc1c(N2C[C@@H]3CCCN[C@@H]3C2)c(F)cc2c(=O)c(C(=O)O)cn(C3CC3)c12.Cl.O | 390 | 456 | 437 | 434 | 394 | 399 |  |  |  |
| COc1cc(N2CCC(N3CCN(C)CC3)CC2)ccc1Nc1ncc(Cl)c(Nc2ccccc2[S+](=O)([O-])C(C)C)n1 |  |  |  |  |  |  | 284 | 273 | 300 |
